“Also recorded” adds a separate entry of the source. Bridge positions count the residues as written; N and C are the ends. Square brackets hold non-standard residues; d marks the D form. Peptide text beside a SMILES is read from it. S5 = C=CCCC[C@](C)(N)C(=O)O; Sar = CNCC(=O)O
Test system: human neutrophils
Assay: NETosis assay (free DNA, PicoGreen)
Format: cell-based
Settings: peptide 2 mM; neutrophils stimulated with PMA and H2O2
Method: Free DNA as a marker for NET formation was measured by PicoGreen as previously described. Briefly, 2.0×10^6 human neutrophils in 96-well plates were stimulated with 12 nM PMA and 0.05% H2O2 in RPMI with or without the indicated peptide variants (2 mM) for 2.5 hr in a 37° C. humified incubator supplemented with 5% CO2, allowing NETosis to occur. Neutrophils in RPMI alone served as a negative control. Fifty units of […] (Fisher) were added to each well to allow for digestion of released extracellular DNA for 10 min at 37° C. The preparation was then aliquoted into an adjacent well and mixed 1:1 with prepared PICO green reagent (Fisher). The fluorescence was then quantified on a BioTek microplate reader at excitation 485 nm/emission 528 nm.

CC[C@H](C)[C@H](N)C(=O)N[C@@H](C)C(=O)N[C@@H](CC(C)C)C(=O)N[C@H](C(=O)N[C@@H](CC(C)C)C(=O)N[C@@H](CCC(=O)O)C(=O)N1CCC[C@H]1C(=O)N(C)CC(=O)N[C@@H](CS)C(=O)N[C@@]1(C)CCCC=CCCC[C@@](C)(C(=O)N[C@@H](C)C(=O)O)NC(=O)[C@H](CCCNC(=N)N)NC(=O)[C@H](CCC(=O)O)NC(=O)[C@H](CCC(N)=O)NC1=O)[C@@H](C)CC [PA-0117, IALILEP(Sar)CS5QERS5A] (H-IALILEP[Sar]C[S5]QER[S5]A-OH; staple 10-14)
reduction of free DNA (marker of NETosis): did not reduce levels of free DNA; also recorded: did not show a reduction in free DNA

Source: patent publication US20230272012A1, “PEPTIDES AND METHODS OF USE” (REALTA LIFE SCIENCES, INC., priority 2020, published 2023)
